The target in data set [1] is T1, hMC5 (Homo sapiens, UniProt P33032). Nature of the data set: cAMP accumulation assay, transfected HEK293A. More on the design: dose or concentration left out as unconfirmed. As to conditions: HEK293-A, 0.25 h, read-out: Top. Background: Cyclic AMP is a second messenger, typically raised through Gs and lowered through Gi signalling.
Experimental: (§1) HEK293A cells were maintained in DMEM containing 10% fetal calf serum (FCS), 2 mM L-glutamine, 100 U/ml penicillin, and 100 μg/ml streptomycin and kept at 37°C with 5% CO2.
(§2) Twenty-four hours after transfection, cells were serum-starved for 3 hours to reduce and stabilize basal levels of cAMP. Melanocortin agonists were tested using 1/5 serial dilutions to generate concentration response curves starting at 10 or 0.4 µM. Vehicle was used as negative control, and forskolin (3 µM, Tocris Bioscience) as positive control. Compound solutions were prepared in serum-free DMEM containing 10 mM 3-isobutyl-1-methylxanthine (IBMX; Sigma), to inhibit phosphodiesterase activity. […] Optical Density (OD) measurements were converted to cAMP concentration using a standard curve and results were normalized subtracting background signal and calculated as % of forskolin.
For data set [2], the target named is T2, mMC5 (Mus musculus, UniProt P41149). The experiment in a line: cAMP accumulation assay, transfected HEK293A. More on the design: dose or concentration left out as unconfirmed. The conditions noted are these: HEK293-A, 0.25 h, read-out: Top.
T2 sequence (P41149 whole entry): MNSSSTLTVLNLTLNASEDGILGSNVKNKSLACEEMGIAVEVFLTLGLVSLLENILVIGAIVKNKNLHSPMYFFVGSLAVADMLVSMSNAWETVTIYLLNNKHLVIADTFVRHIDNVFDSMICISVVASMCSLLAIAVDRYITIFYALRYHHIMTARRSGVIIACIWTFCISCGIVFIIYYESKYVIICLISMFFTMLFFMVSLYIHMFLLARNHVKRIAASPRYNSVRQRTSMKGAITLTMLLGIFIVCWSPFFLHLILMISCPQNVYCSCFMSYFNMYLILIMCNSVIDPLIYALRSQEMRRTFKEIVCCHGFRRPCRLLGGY
Experimental: as §1, §2
Data set [3] concerns the target T1, hMC5. The experiment in a line: ERK1/2 phosphorylation assay, transfected HEK293A. The data set is classed as cell-based. Also on record: host or cells: HEK293A. As to conditions: HEK293-A, 5 min; p-ERK1/2, hMC5; normalised maximal efficacy at 2μM, percentage of maximal αMSH response; read-out: Top.
Experimental: as §1
(§3) Twenty-four hours after transfection, cells were serum-starved for 3 hours to reduce and stabilize basal levels of phospho-ERK1/2. Concentration response curves were generated by 1/5 serial dilutions as above. Drug solutions were prepared in serum-free DMEM. Cells were stimulated for 5 min with the different compounds and lysed immediately with ice-cold extraction buffer supplied in the ERK1/2 (pT202/Y204) SimpleStep ELISA Kit (Abcam ab176640; Cambridge, UK), according to manufacturer instructions. Total protein was also quantified by Bradford to normalize p-ERK1/2 response.
The target in data set [4] is T3, mMC1 (Mus musculus, UniProt Q01727). The experiment in a line: cAMP accumulation assay, transfected HEK293A. Also on record: dose or concentration left out as unconfirmed. The conditions noted are these: HEK293-A, 0.25 h, read-out: Top.
T3 sequence (Q01727 whole entry): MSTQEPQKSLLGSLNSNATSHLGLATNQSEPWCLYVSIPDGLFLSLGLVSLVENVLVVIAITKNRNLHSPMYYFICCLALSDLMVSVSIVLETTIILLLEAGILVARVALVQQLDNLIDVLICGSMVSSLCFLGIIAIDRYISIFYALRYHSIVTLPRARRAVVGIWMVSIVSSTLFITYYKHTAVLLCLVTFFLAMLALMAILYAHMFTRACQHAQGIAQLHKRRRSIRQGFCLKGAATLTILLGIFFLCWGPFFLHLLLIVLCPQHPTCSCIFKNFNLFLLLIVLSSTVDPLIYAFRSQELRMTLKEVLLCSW
Experimental: as §1, §2
For data set [5], the target named is T4, hMC3 (Homo sapiens, UniProt P41968). The experiment in a line: ERK1/2 phosphorylation assay, transfected HEK293A. The conditions noted are these: 5 min; p-ERK1/2, hMC3; normalised maximal efficacy at 2μM, percentage of maximal αMSH response; read-out: Top. More on the design: host or cells: HEK293A. The data set is classed as cell-based.
T4 sequence (P41968 whole entry): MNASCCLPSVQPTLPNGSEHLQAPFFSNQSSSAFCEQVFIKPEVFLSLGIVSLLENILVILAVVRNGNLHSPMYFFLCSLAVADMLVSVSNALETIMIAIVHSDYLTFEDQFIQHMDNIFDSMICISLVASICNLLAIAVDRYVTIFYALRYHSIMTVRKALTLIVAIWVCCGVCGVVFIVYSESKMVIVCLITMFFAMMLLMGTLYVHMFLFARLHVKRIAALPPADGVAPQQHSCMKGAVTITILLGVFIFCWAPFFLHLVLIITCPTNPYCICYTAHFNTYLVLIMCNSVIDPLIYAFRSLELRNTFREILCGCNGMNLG
Experimental: as §1, §3
For data set [6], the target named is T5, hMC4 (Homo sapiens, UniProt P32245).
T5 construct: host or cells: HEK293A
T5 sequence (P32245 whole entry): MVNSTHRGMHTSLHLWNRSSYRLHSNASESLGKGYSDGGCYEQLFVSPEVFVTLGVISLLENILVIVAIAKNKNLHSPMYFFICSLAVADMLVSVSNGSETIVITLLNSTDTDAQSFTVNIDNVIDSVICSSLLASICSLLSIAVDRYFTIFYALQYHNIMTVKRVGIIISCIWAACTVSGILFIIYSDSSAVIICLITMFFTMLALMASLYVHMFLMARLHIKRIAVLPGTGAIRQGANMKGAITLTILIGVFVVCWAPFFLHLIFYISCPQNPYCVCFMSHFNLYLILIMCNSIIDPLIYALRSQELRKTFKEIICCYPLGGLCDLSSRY
The experiment in a line: cAMP accumulation assay, transfected HEK293A. The data set is classed as cell-based. The conditions noted are these: HEK293-A, 0.25 h, normalised maximal efficacy at 2μM, percentage of maximal αMSH response, read-out: Top.
Experimental: (§4) HEK293A cells were maintained in DMEM containing 10% fetal calf serum (FCS), 2 mM L-glutamine, 100 U/ml penicillin, and 100 μg/ml streptomycin and kept at 37°C with 5% CO2. […] Compound solutions were prepared in serum-free DMEM containing 10 mM 3-isobutyl-1-methylxanthine (IBMX; Sigma), to inhibit phosphodiesterase activity. […] Optical Density (OD) measurements were converted to cAMP concentration using a standard curve and results were normalized subtracting background signal and calculated as % of forskolin.

Data set [7] has as its target T3, mMC1. The experiment in a line: ERK1/2 phosphorylation assay, transfected HEK293A. More on the design: host or cells: HEK293A. The format is cell-based. The conditions noted are these: HEK293-A, 5 min; p-ERK1/2, mMC1; normalised maximal efficacy at 2μM, percentage of maximal αMSH response; read-out: Top.
Experimental: as §1, §3
For data set [8], the target named is T6, mMC4 (Mus musculus, UniProt P56450).
T6 construct: host or cells: HEK293A
T6 sequence (P56450 whole entry): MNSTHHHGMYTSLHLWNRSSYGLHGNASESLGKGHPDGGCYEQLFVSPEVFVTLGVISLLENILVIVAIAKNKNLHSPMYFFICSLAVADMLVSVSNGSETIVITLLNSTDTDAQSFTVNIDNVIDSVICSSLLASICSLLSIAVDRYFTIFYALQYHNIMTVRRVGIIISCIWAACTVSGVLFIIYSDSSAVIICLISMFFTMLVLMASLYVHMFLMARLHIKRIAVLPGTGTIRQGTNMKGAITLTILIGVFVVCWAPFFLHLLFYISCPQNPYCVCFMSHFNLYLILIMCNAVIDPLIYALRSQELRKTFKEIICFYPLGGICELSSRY
The experiment in a line: ERK1/2 phosphorylation assay, transfected HEK293A. The conditions noted are these: HEK293-A, 5 min; p-ERK1/2, mMC4; normalised maximal efficacy at 2μM, percentage of maximal αMSH response; read-out: Top. The data set is classed as cell-based.
Experimental: (§5) HEK293A cells were maintained in DMEM containing 10% fetal calf serum (FCS), 2 mM L-glutamine, 100 U/ml penicillin, and 100 μg/ml streptomycin and kept at 37°C with 5% CO2. […] Total protein was also quantified by Bradford to normalize p-ERK1/2 response.

Data set [9] has as its target T7, hMC1 (Homo sapiens, UniProt Q01726). Nature of the data set: ERK1/2 phosphorylation assay, transfected HEK293A. The data set is classed as cell-based. Also on record: host or cells: HEK293A. The conditions noted are these: 5 min; p-ERK1/2, hMC1; normalised maximal efficacy at 2μM, percentage of maximal αMSH response; read-out: Top.
Experimental: as §1, §3
Data set [10] addresses T2, mMC5. The experiment in a line: ERK1/2 phosphorylation assay, transfected HEK293A. The format is cell-based. Also on record: host or cells: HEK293A. As to conditions: HEK293-A, 5 min; p-ERK1/2, mMC5; normalised maximal efficacy at 2μM, percentage of maximal αMSH response; read-out: Top.
Experimental: as §1, §3
Data set [11] has as its target T7, hMC1. Nature of the data set: cAMP accumulation assay, transfected HEK293A. Also on record: dose or concentration left out as unconfirmed. As to conditions: HMC1, 0.25 h, read-out: Top.
Experimental: as §1, §2
The conditions of data set [12]: humans, single subcutaneous administration; cited from earlier work.
In data set [13] the target is T5, hMC4. The experiment in a line: ERK1/2 phosphorylation assay, transfected HEK293A. The format is cell-based. The conditions noted are these: HEK293-A, 5 min; p-ERK1/2, hMC4; normalised maximal efficacy at 2μM, percentage of maximal αMSH response; read-out: Top.
Experimental: as §5
Data set [14] addresses T4, hMC3. The experiment in a line: cAMP accumulation assay, transfected HEK293A. Also on record: dose or concentration left out as unconfirmed. The conditions noted are these: HMC3, 0.25 h, read-out: Top.
Experimental: as §1, §2
For data set [15], the target named is T6, mMC4. The experiment in a line: cAMP accumulation assay, transfected HEK293A. The data set is classed as cell-based. As to conditions: HEK293-A, 0.25 h, normalised maximal efficacy at 2μM, percentage of maximal αMSH response, read-out: Top.
Experimental: as §4

T7 sequence (Q01726 whole entry): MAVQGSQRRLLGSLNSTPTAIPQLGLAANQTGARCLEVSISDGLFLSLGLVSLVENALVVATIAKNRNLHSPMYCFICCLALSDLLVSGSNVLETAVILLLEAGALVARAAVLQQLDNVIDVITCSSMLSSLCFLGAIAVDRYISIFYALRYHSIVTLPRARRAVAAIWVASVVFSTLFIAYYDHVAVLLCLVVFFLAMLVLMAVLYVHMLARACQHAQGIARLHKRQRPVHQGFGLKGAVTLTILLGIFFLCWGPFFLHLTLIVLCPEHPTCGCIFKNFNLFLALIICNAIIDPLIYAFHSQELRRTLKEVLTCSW
T1 sequence (P33032 whole entry): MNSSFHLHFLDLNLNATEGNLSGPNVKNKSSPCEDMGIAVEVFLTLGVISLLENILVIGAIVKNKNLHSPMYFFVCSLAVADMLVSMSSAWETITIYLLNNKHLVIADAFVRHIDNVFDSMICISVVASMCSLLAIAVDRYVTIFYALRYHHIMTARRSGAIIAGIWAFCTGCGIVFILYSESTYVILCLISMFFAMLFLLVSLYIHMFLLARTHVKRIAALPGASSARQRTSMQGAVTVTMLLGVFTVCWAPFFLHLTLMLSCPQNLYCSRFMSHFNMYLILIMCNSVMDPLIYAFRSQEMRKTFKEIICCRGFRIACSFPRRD

Regarding `CCCC[C@H](NC(C)=O)C(=O)N[C@H]1CCC(=O)NC[C@@H](C(=O)N[C@@H](Cc2c[nH]c3ccccc23)C(N)=O)NC(=O)[C@H](CCCNC(=N)N)NC(=O)[C@@H](Cc2ccccc2)NC(=O)[C@H](Cc2c[nH]cn2)NC1=O` [PL8177, Ac-Nle^1-cyclo(Glu^2-L-His^3-D-Phe^4-Arg^5-Dap^6)-Trp^7-NH2], the Emax was 38.2% on hMC5 [1]; 14.8% at mMC5 [2]; 62.7% at hMC5 [3]; 103% at mMC1 [4]; 70.1% at hMC3 [5]; 99.7% on mMC1 [7]. In addition, the Emax at mMC4 [8] is 80.7%; at hMC1 [9] it was 136%; at mMC5 [10] it was 18.6%; at hMC1 [11], 112%; on hMC4 [13], 56.1%; on hMC3 [14] it was 10.9%. In addition, the Emax at 2 µM is 26.5% at hMC4 [6] and 75.1% at mMC4 [15]. Besides, the “persisting plasma levels after administration” value in data set [12] is listed as 48 h.

The values are drawn from paper PMC9730523 (Frontiers in Immunology, 2022).
